Assay results: patent US20210269451A1, “PYRIDINYL HETEROCYCLYL COMPOUNDS FOR THE TREATMENT OF AUTOIMMUNE DISEASE” (Hoffmann-La Roche Inc., priority 2018, published 2021)

How the values were obtained:
CYP2D6 = target: T1, CYP2D6 (Homo sapiens, UniProt P10635); test: CYP inhibition assay in human liver microsome; assay type: in vitro ADME; conditions: human liver microsomes, probe dextromethorphan, dextromethorphan substrate, percentage inhibition <0: not or weak inhibitor, read-out: CYP 2D6 inhibition %@10 μM
T1 construct: tissue BD-Gentest 452117; host or cells: human liver microsomes
Description: The compounds would be desirable to have minimal DDI liabilities. Therefore, the effects of compounds of formula (I) or (Ia) on CYP2D6 are determined.
This is a high throughput screening assay used for assessment of reversible inhibition of CYP2D6 activity of test compounds in human liver microsome (HLM) in early discovery stage.
10 mM DMSO stock solutions of test compounds were diluted in DMSO to generate 2 mM intermediate stock solution. 250 nL of intermediate stock solution were transferred in duplicate into 3 separate 384 well microtitre plates (assay-ready plates). A mixture of HLM and each substrate was made up. 45 μL of HLM substrate mix was then transferred to each well of an assay ready plate and mixed. The negative (solvent) and positive control (standard inhibitor for CYP 2D6) were included in each assay ready plate. The assay ready plate was warmed to 37° C. in an incubator over 10 minutes. 5 μL pre-warmed NADPH regenerating system was added to each incubation well to start the reaction. Final incubation volume was 50 μL. The assay plate then was placed back in the 37° C. incubator. After 10 minutes incubation, incubates were quenched by addition of 50 μL 100% acetonitrile containing internal standards (20 ng/mL D3-Dextrorphan). The supernatants were collected for RapidFire/MS/MS analysis.
RapidFire online solid phase extraction/sample injection system (Agilent) coupled with API4000 triple quadrupole mass spectrometer (AB Sciex) were used for sample analysis. The mobile phase composed of acetonitrile and water supplemented with 0.1% formic acid. A C4 solid phase extraction cartridge is used for sample separation. MS detection is achieved in positive ion MRM mode.
Data analysis Peak areas for substrate, metabolite and internal standard are determined using the RapidFire integrator software (version 3.6.12009.12296). Peak area ratios (PAR) of metabolite and internal standard (stable-labelled metabolite) are then calculated. The measurement window for each experiment is then defined:
PAR (0% activity), average PAR for all incubations containing concentrated inhibitor; Par (100% activity), average PAR for all incubations containing no inhibitor (DMSO controls);
% Activity (test inhibitor)=
=[PAR(test inhibitor)-PAR(0% activity)]/[PAR(100% activity)-PAR(0% activity)];
% Inhibition (test inhibitor)=100-% Activity (test inhibitor).

hTLR9 = target: T2, hTLR9 (Homo sapiens, UniProt Q9NR96); test: HEK293-Blue-hTLR-9 cells assay; assay type: cell-based; parameters: host or cells: HEK293-Blue-hTLR-9 (HEK293); conditions: HEK293-Blue-hTLR9 cells, ODN2006 stimulation, 20 hrs, SEAP reporter; read-out: HEK/hTLR9 IC50
T2 sequence (Q9NR96 26-1032): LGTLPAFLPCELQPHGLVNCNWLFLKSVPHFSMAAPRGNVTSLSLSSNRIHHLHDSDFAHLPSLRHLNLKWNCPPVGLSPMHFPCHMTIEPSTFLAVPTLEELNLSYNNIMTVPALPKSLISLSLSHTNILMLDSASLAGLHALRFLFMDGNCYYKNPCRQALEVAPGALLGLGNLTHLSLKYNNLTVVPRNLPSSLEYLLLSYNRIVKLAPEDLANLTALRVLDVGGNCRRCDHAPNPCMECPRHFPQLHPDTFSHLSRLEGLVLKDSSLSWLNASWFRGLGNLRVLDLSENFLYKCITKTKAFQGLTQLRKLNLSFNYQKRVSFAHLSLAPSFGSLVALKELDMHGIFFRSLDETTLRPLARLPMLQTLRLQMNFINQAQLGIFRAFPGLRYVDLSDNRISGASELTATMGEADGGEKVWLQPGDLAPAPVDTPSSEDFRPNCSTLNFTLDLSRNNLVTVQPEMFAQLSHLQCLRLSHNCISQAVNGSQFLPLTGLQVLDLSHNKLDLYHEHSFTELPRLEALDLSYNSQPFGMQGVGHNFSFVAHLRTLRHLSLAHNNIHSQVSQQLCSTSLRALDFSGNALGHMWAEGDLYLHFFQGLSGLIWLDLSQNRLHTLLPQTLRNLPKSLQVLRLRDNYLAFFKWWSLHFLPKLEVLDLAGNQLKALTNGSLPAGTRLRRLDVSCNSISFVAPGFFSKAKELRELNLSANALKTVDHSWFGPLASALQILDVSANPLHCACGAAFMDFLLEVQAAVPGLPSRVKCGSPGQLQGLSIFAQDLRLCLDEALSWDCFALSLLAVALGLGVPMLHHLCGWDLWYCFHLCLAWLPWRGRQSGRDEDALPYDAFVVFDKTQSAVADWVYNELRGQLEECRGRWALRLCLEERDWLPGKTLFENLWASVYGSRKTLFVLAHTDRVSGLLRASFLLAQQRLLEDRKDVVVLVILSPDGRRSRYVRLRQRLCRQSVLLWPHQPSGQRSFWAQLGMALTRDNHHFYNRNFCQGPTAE
Description: The following tests were carried out in order to determine the activity of the compounds of formula (I) and (Ia) in HEK293-Blue-hTLR-7/8/9 cells assay.
HEK293-Blue-hTLR-9 cells assay:
A stable HEK293-Blue-hTLR-9 cell line was purchased from InvivoGen (Cat. #: hkb-htlr9, San Diego, Calif., USA). These cells were originally designed for studying the stimulation of human TLR9 by monitoring the activation of NE-KB. A SEAP (secreted embryonic alkaline phosphatase) reporter gene was placed under the control of the IFN-β minimal promoter fused to five NE-κB and AP-1-binding sites. The SEAP was induced by activating NE-κB and AP-1 via stimulating HEK-Blue hTLR9 cells with TLR9 ligands. Therefore the reporter expression was declined by TLR9 antagonist under the stimulation of a ligand, such as ODN2006 (Cat. #: tlrl-2006-1, Invivogen, San Diego, Calif., USA), for incubation of 20 hrs. The cell culture supernatant SEAP reporter activity was determined using QUANTI-Blue™ kit (Cat. #: rep-qb1, Invivogen, San Diego, Calif., USA) at a wavelength of 640 nm, a detection medium that turns purple or blue in the presence of alkaline phosphatase.
HEK293-Blue-hTLR9 cells were incubated at a density of 250,000˜450,000 cells/mL in a volume of 170 μL in a 96-well plate in Dulbecco's Modified Eagle's medium (DMEM) containing 4.5 g/L glucose, 50 U/mL penicillin, […], […], 2 mM L-glutamine, 10% (v/v) heat-inactivated fetal bovine serum with addition of 20 μL test compound in a serial dilution in the presence of final DMSO at 1% and 10 μL of 20 uM ODN2006 in above DMEM, perform incubation under 37° C. in a CO2 incubator for 20 hrs. Then 20 μL of the supernatant from each well was incubated with 180 μL Quanti-blue substrate solution at 37° C. for 2 h and the absorbance was read at 620˜655 nm using a spectrophotometer. The signaling pathway that TLR9 activation leads to downstream NE-κB activation has been widely accepted, and therefore similar reporter assay was modified for evaluating TLR9 antagonist.

T1 sequence (P10635 whole entry): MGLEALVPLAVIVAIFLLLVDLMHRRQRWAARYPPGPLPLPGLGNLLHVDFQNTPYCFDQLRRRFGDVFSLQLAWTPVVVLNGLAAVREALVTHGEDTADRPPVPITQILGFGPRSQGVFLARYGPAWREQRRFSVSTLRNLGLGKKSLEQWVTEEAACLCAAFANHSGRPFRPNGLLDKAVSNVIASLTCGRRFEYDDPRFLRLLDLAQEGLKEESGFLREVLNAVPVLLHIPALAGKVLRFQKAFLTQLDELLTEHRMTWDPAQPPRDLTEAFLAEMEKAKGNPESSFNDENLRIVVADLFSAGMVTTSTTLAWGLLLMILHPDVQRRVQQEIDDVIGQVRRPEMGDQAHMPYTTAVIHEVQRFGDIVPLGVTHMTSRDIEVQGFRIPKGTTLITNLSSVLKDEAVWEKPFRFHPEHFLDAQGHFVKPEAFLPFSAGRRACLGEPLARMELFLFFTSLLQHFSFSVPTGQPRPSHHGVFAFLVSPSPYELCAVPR

Structure (SMILES)	inhibition at 10 min, 10 μM (CYP2D6) [%]	IC50 (hTLR9) [nM]
Cc1cc(N2CCOC3CN(CC4CN(c5ccc(C#N)c6ncccc56)CC(C)O4)CC32)cc(C)n1 (single isomer, unassigned) [Example 17B]	5	< 32
Cc1cc(N2CCC[C@H](N(C)C[C@H]3CN(c4ccc(C#N)c5ncccc45)C[C@@H](C)O3)C2)cc(CO)n1 [Example 38]	0	39
Cc1cc(N2CCC3(CN(C[C@H]4CN(c5ccc(C#N)c6ncccc56)C[C@@H](C)O4)C3)C2)cc(C)n1 [Example 9]	-5	32
Cc1cc(N2CCC23CN(C[C@H]2CN(c4ccc(C#N)c5ncccc45)C[C@@H](C)O2)C3)ccn1 [Example 15]	4	71
Cc1cc(N2CC3(CN(C[C@H]4CN(c5ccc(C#N)c6ncccc56)C[C@@H](C)O4)C3)C2)cc(CO)n1 [Example 1, 5-[(2S,6R)-2-[[2-[2-(hydroxymethyl)-6-methyl-4-pyridyl]-2,6-diazaspiro[3.3]heptan-6-yl]methyl]-6-methyl-morpholin-4-yl]quinoline-8-carbonitrile]	6	34
Cc1cc(NC2CCN(C[C@H]3CN(c4ccc(C#N)c5ncccc45)C[C@@H](C)O3)C2)cc(CO)n1 (some centres unmarked) [Example 6]	8	41
Cc1cc(N2CCC23CN(C[C@H]2CN(c4ccc(C#N)c5ncccc45)C[C@@H](C)O2)C3)cc(CO)n1 [Example 12]	-3	49
Cc1cc(N2CCN(C[C@H]3CN(c4ccc(C#N)c5ncccc45)C[C@@H](C)O3)CC2)cc(N)n1 [Example 40, 5-[(2S,6R)-2-[[4-(2-amino-6-methyl-4-pyridyl)piperazin-1-yl]methyl]-6-methyl-morpholin-4-yl]quinoline-8-carbonitrile]	14.5	41
Cc1cc(N2CCC[C@@H](NC[C@H]3CN(c4ccc(C#N)c5ncccc45)C[C@@H](C)O3)C2)cc(CO)n1 [Example 24]	-9.5	< 32
CC(O)c1cc(N2CC3(CN(C[C@H]4CN(c5ccc(C#N)c6ncccc56)C[C@@H](C)O4)C3)C2)ccn1 (stereo partly drawn) [Example 46, 5-[(2S,6R)-2-[[2-[2-(1-hydroxyethyl)-4-pyridyl]-2,6-diazaspiro[3.3]heptan-6-yl]methyl]-6-methyl-morpholin-4-yl]quinoline-8-carbonitrile]	17	< 32
Cc1cc(N2C[C@H]3CN(C[C@H]4CN(c5ccc(C#N)c6ncccc56)C[C@@H](C)O4)C[C@H]3C2)cc(CO)n1 [Example 10]	3.5	< 32
Cc1cc(N2CC3(CN(C[C@H]4CN(c5ccc(C#N)c6ncccc56)C[C@@H](C)O4)C3)C2)cc(C(C)O)n1 (stereo partly drawn) [Example 44, 5-[(2S,6R)-2-[[2-[2-(1-hydroxyethyl)-6-methyl-4-pyridyl]-2,6-diazaspiro[3.3]heptan-6-yl]methyl]-6-methyl-morpholin-4-yl]quinoline-8-carbonitrile]	5	< 32
C[C@@H]1CN(c2ccc(C#N)c3ncccc23)C[C@H](CN[C@H]2CCCN(c3ccnc(N)c3)C2)O1 [Example 22]	2	34
Cc1cc(N(C)C2CN(C[C@H]3CN(c4ccc(C#N)c5ncccc45)C[C@@H](C)O3)C2)cc(C)n1 [Example 11]	-7.5	40
Cc1cc(N2CCC[C@@H](N(C)C[C@H]3CN(c4ccc(C#N)c5ncccc45)C[C@@H](C)O3)C2)cc(CO)n1 [Example 35]	-4	34
Cc1cc(NC2CCN(C[C@H]3CN(c4ccc(C#N)c5ncccc45)C[C@@H](C)O3)CC2)cc(CO)n1 [Example 5]	7.5	32
Cc1cc(C2CCN(C[C@H]3CN(c4ccc(C#N)c5ncccc45)C[C@@H](C)O3)CC2)cc(N)n1 [Example 43, 5-[(2S,6R)-2-[[4-(2-amino-6-methyl-4-pyridyl)-1-piperidyl]methyl]-6-methyl-morpholin-4-yl]quinoline-8-carbonitrile]	-13	54
C[C@@H]1CN(c2ccc(C#N)c3ncccc23)C[C@H](CN2CC3(C2)CN(c2ccnc(C4CC4)c2)CCO3)O1 [Example 3, 5-[(2S,6R)-2-[[8-(2-cyclopropyl-4-pyridyl)-5-oxa-2,8-diazaspiro[3.5]nonan-2-yl]methyl]-6-methyl-morpholin-4-yl]quinoline-8-carbonitrile]	6	48
Cc1cc(NC2CN(C[C@H]3CN(c4ccc(C#N)c5ncccc45)C[C@@H](C)O3)C2)cc(C)n1 [Example 7]	-21.5	39
